What was measured:
[1] = target: T1, Human pancreatic α-amylase (HPA) (Homo sapiens, UniProt P04746); conditions: relative to M09
T1 sequence (P04746 16-511): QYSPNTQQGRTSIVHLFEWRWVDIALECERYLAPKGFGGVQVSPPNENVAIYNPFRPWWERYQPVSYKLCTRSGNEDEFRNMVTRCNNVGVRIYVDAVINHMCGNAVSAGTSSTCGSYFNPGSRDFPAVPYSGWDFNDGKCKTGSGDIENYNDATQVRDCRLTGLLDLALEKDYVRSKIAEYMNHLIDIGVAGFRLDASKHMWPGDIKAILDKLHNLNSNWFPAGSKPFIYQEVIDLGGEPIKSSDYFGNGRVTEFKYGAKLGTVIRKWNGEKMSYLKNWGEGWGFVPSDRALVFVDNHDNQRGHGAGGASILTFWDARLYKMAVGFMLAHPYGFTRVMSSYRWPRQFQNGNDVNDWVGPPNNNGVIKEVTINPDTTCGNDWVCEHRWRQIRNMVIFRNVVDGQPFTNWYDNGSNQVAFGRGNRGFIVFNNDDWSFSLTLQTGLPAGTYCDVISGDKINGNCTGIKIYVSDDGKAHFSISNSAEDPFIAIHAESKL

[2] = target: T1, Human pancreatic α-amylase (HPA); test: biochemical
Jack bean α-mannosidase = target: T2, Jack bean α-mannosidase (Canavalia ensiformis, UniProt C0HJB3); test: Specificity analysis of M10: Jack bean α-mannosidase; assay type: biochemical; conditions: read-out: M10 IC50; 37 °C, pH 7
T2 sequence (C0HJB3 1-981): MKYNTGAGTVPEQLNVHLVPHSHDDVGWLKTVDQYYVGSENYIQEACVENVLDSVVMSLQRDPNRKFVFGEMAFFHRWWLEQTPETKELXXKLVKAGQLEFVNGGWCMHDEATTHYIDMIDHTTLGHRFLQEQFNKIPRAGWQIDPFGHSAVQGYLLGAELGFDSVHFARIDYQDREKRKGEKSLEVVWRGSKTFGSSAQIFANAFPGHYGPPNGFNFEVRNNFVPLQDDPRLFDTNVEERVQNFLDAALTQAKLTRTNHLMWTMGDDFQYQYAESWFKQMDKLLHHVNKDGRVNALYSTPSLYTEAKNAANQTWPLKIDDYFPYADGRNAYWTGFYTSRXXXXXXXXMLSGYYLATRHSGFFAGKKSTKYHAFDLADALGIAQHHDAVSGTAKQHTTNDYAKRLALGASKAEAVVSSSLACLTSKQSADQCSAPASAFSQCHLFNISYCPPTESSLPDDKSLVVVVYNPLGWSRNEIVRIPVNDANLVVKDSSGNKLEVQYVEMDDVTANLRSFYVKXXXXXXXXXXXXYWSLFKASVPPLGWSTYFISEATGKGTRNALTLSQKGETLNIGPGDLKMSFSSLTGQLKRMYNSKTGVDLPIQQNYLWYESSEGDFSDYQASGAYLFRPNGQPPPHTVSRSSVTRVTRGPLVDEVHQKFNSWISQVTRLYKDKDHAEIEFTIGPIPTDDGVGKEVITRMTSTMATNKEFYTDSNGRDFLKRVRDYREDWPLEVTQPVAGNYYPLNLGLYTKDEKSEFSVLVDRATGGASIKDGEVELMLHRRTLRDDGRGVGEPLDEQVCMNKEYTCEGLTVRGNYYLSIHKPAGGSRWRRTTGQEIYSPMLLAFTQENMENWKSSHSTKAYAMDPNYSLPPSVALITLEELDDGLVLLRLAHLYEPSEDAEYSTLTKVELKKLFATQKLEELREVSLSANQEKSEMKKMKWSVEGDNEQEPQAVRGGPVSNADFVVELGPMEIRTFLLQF

E. coli β-galactosidase = E. coli β-galactosidase (Escherichia coli, UniProt P00722); test: Specificity analysis of M10: E. coli β-galactosidase; conditions: read-out: M10 IC50; 37 °C, pH 7, 1.0 mM MgCl2
[3] = target: Green coffee bean α-galactosidase (Coffea arabica, UniProt Q42656); test: Specificity analysis of M10: green coffee bean α-galactosidase; assay type: biochemical; conditions: read-out: M10 IC50; 37 °C, pH 7
[4] = target: T3, Agrobacterium β-glucosidase (Agrobacterium sp., UniProt P12614); test: Specificity analysis of M10: Agrobacterium β-glucosidase; assay type: biochemical
T3 sequence (P12614 1-459): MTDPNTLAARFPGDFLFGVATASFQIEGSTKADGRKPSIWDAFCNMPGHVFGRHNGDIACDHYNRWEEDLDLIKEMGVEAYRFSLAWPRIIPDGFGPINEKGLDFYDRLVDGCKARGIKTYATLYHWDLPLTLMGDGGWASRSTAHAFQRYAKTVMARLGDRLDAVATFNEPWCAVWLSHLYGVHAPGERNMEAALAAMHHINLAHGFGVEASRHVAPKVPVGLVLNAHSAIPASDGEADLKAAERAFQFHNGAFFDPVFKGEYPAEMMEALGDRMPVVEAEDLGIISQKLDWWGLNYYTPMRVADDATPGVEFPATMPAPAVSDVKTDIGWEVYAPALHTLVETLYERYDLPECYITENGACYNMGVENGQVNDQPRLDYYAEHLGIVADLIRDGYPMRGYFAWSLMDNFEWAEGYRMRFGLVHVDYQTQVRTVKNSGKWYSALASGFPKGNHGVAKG

[5] = target: H. sapiens C-term sucrase-isomaltase (Homo sapiens, UniProt P14410); test: Specificity analysis: C-term sucrase-isomaltase; assay type: biochemical; conditions: read-out: M10 IC50; 37 °C, pH 7, PNP α-Glc
[6] = target: Homo sapiens maltase-glucoamylase (Homo sapiens, UniProt O43451); test: Specificity analysis of M10: maltase-glucoamylase; assay type: biochemical; conditions: read-out: M10 IC50; 37 °C, pH 7, PNP α-Glc

Green coffee bean α-galactosidase, sequence (Q42656 16-378): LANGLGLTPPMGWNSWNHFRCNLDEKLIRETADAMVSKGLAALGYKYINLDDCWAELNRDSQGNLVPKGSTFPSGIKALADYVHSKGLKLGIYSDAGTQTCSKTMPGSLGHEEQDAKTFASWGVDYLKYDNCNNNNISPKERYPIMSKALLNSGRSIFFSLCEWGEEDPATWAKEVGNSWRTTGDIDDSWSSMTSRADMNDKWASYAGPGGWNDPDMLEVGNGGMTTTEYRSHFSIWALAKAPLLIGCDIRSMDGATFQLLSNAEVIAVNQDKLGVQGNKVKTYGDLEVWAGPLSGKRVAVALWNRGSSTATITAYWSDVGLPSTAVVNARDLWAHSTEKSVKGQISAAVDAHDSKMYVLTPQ
E. coli β-galactosidase, sequence (P00722 2-1024 limits assumed): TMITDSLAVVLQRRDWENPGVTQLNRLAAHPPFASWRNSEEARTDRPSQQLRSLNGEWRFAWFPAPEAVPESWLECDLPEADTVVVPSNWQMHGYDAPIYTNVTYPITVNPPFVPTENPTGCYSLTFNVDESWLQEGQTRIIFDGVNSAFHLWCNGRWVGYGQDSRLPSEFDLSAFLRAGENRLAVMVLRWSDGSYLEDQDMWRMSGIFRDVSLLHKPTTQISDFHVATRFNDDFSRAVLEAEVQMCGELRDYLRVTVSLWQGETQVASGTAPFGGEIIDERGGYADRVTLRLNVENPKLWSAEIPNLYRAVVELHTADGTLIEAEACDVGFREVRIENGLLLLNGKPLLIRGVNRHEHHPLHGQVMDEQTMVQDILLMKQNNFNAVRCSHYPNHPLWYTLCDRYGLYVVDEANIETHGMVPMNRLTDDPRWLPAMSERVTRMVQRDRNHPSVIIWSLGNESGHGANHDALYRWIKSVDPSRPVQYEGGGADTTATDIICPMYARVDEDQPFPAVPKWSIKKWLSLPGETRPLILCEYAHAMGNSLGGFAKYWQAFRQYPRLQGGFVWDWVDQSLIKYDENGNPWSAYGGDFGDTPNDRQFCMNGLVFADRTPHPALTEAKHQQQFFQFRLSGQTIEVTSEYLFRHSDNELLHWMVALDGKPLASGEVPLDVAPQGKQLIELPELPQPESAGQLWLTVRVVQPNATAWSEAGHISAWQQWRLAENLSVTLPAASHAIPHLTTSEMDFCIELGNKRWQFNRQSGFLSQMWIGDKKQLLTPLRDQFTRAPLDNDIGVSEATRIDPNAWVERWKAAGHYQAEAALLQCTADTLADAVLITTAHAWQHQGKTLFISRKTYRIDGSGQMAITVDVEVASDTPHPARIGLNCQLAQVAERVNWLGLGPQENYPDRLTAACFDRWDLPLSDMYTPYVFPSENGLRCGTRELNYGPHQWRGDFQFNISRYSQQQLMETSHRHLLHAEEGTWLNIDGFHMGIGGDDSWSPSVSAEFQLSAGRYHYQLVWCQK
H. sapiens C-term sucrase-isomaltase, sequence (P14410 1008-1827 limits assumed): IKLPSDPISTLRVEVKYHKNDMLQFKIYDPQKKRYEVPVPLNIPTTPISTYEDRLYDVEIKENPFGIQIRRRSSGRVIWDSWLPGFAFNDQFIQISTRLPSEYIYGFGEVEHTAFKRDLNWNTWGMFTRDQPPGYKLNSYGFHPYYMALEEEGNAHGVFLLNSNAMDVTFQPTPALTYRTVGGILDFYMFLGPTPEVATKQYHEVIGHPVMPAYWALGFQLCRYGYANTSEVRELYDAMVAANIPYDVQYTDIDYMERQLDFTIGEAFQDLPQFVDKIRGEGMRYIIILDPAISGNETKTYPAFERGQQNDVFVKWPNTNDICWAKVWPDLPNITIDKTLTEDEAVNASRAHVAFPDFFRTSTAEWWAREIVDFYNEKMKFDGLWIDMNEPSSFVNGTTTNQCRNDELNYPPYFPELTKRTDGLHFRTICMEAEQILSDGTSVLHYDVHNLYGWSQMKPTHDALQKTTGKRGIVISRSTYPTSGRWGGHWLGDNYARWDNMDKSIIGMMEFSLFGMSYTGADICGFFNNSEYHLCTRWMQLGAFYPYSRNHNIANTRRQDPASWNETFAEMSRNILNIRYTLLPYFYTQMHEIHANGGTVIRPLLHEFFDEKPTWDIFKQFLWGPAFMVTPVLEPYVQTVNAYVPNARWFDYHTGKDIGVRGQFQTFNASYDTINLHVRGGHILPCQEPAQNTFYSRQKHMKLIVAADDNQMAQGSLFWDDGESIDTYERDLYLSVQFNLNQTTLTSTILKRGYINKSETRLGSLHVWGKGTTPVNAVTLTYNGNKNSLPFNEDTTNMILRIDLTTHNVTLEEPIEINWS

For O=C(/C=C/c1ccc(O)c(O)c1)N[C@@H](Cc1ccc(O)c(O)c1)C(=O)NCCCOc1c(-c2ccc(O)c(O)c2)oc2cc(O)cc(O)c2c1=O [M11], the “Further contribution to the binding affinity” value [1] was about 2.5 kcal mol^–1 and the Ki [2] was 0.06 µM.
Molecule O=C(/C=C/c1ccc(O)c(O)c1)NCC(=O)NCCCOc1c(-c2ccc(O)c(O)c2)oc2cc(O)cc(O)c2c1=O [M05] has a Ki [2] of 60 ± 10 µM.
With O=C(/C=C/c1ccc(O)c(O)c1)N[C@@H](Cc1ccc(O)cc1)C(=O)NCCCOc1c(-c2ccc(O)c(O)c2)oc2cc(O)cc(O)c2c1=O [M10] the “Further contribution to the binding affinity” value [1] was about 2.5 kcal mol^–1, the IC50 (Jack bean α-mannosidase) was over 7 µM and the IC50 (E. coli β-galactosidase) was over 7 µM. It also gave an IC50 [3] of over 7 µM, an IC50 [4] of 35.4 ± 5.7 µM and an IC50 [5] of over 7 µM. It also gave an IC50 [6] of over 7 µM.
O=C(/C=C/c1ccc(O)c(O)c1)NCCCOc1c(-c2ccc(O)c(O)c2)oc2cc(O)cc(O)c2c1=O [M03] showed a Ki [2] of 110 ± 10 µM.
